Laboratory results reported in US4349562A, “Substituted 2-pyrrolidinones” (Hoffmann-La Roche Inc., priority 1978, dated 1982).
Where two headings read alike, the source gives them in different places.

Legend:
[1] = test system: untrained rats; assay: Posthypercapnic "avoidance" acquisition (shuttle box); format: in vivo; conditions: Rattus norvegicus, carbon dioxide 12 seconds, read-out: Minimum active dosage
Protocol: (§1) The ability of the compounds of formula I to counteract experimentally produced cerebral insufficiency in mammals was determined by means of test procedures which are described hereinafter:
POSTHYPERCAPNIC "AVOIDANCE" ACQUISITION
The test apparatus is a "shuttle box" having a 10 cm high hurdle in the middle and an electrifiable grid floor. A loudspeaker is mounted in the soundproof chamber. One group of untrained rats (120-150 g.) is injected with a test preparation and a second group is injected with a control preparation. One or three hours after administration, each group is placed in a pure carbon dioxide environment for 12 seconds. A third group of 10 rats is treated neither with the test preparation nor with carbon dioxide. Three minutes after treatment with carbon dioxide the rats of all three groups must learn an escape response and an avoidance response in the "shuttle box" in the following sequence: 10 seconds silence, 5 seconds noise ("avoidance response"), 15 seconds noise+foot-shock ("escape response"). The sequence is repeated six times. For each of the six experiments the reaction time (time until the rat jumps over the hurdle) of each rat is measured and the statistical significance of the differences between the mean group reaction times is calculated by means of the Mann-Whitney U-test.

[2] = Acute toxicity in mice; conditions: mouse, in vivo, po
Description: The acute toxicities of the compounds of formula I in mice are as follows: […]

[3] = test system: untrained male rats; assay: "Passive avoidance" test with electroshock amnesia; format: in vivo; conditions: Rattus norvegicus, ip, 3 h, i.p., electric shock, retention time after three hours, read-out: minimum active dosage
Protocol: as §1
"PASSIVE AVOIDANCE" TEST WITH ELECTROSHOCK AMNESIA
The test apparatus is a Skinner box having an electrifiable grid floor with a grey quadrangular platform in one corner. Untrained male rats weighing 100-200 g are placed on the platform. When the rats climb down onto the grid floor they receive an electric shock. […] Immediately after acquisition of the passive avoidance response three groups of 20 rats each are formed. One group receives an electric shock between the ears and i.p. injection of the test preparation. The second group receives an electric shock between the ears and an i.p. injection of sodium chloride. The third group receives only an i.p. injection of sodium chloride. After three hours, each rat is placed on the platform once and the retention time, that is, the time the rat remains on the platform (maximum 60 seconds), is measured. The significant activity of the test preparation in comparison to the two control groups is calculated by means of the Rang Test.

[4] = test system: squirrel monkeys (Saimiri sciureus); assay: Inhibition of haloperidol-induced "knock out" in a "continuous avoidance" test sequence; format: in vivo, squirrel monkey (Saimiri sciureus); conditions: in Primates, ip, before haloperidol 1.0 mg/kg p.o., delay in knock-out time, read-out: minimum active dosage
Protocol: as §1
INHIBITION OF HALOPERIDOL-INDUCED "KNOCK OUT" IN A "CONTINUOUS AVOIDANCE" TEST SEQUENCE
Male, untrained squirrel monkeys (Saimiri sciureus), each weighing 0.6 to 1.2 kg, are trained in a two-lever Skinner box in the following "continuous avoidance" sequence: "avoidance-shock", interval 40 seconds; "shock-shock", interval 20 seconds; foot-shock, maximum 5 seconds. Monkeys having a normal baseline performance receive haloperidol 1.0 mg/kg p.o. to determine the "knock-out" time (blocking of "avoidance and escape"). Monkeys having stable "knock-out" times are selected for the evaluation of test preparations as a potential cerebral insufficiency improver. The test preparations can be injected at various times before the treatment with haloperidol.
A dosage of a test preparation is considered to be active, if the administration before the treatment with haloperidol, produces a significant delay in the "knock-out" time. The test preparation is administered at different times prior to treatment with haloperidol.

Structure (SMILES)	minimal effective dose ([1]; ip, after 1 hour)	minimal effective dose ([1]; po, after 1 hour)	LD50 [2]	minimal effective dose [3]	minimal effective dose [4]	minimal effective dose ([1]; ip, after 3 hours)
COc1ccccc1C(=O)N1CCCC1=O [o-Methoxybenzoyl]	30 mg/kg	100 mg/kg	5000 mg/kg	–	–	–
COc1ccc(CN2CCCC2=O)cc1 [p-Methoxybenzyl, 1-(p-methoxybenzyl)-2-pyrrolidinone]	10 mg/kg	50 mg/kg	2000 to 4000 mg/kg	50 mg/kg	1 mg/kg	–
O=C1CCCN1Cc1ccc(F)cc1 [p-Fluorobenzyl]	50 mg/kg	300 mg/kg	1000 to 2000 mg/kg	–	–	–
COc1cccc(CN2CCCC2=O)c1 [m-Methoxybenzyl]	–	–	1250 to 2500 mg/kg	–	–	50 mg/kg
